Assays:
Assay type in all cases: in vivo
[1] = test system: lolium perenne (LOLPE); experiment: Adjuvant with herbicide pinoxaden on LOLPE; settings: 14 and 21 days
Description: In this example the response of the butylene oxide adjuvant 13 of Table 1 was measured at an application rate of 0.2% of the volume of the spray solution used. It was compared to the adjuvant tris 2-ethylhexyl phosphate [TEHP], which was applied at the higher rate of 0.5% by volume. The herbicide pinoxaden was applied at rates of 7.5, 11.25 or 15 grams per hectare by a laboratory track sprayer to the weed species lolium perenne (LOLPE), alopecurius myosuirides (ALOMY), and avena fatua (AVEFA). In each case the experiments were replicated four times and the percentage damage to the weeds was assessed visually at time periods of 14 and 21 days after application.

[2] = test system: avena fatua (AVEFA); experiment: Adjuvant with herbicide pinoxaden on AVEFA; settings: 14 and 21 days
Description: (§1) In this example Sample 13 from Table 1 was compared to the oil adjuvant blend Turbocharge™. The herbicide fomesafen was applied to the weed species xanthium strumarium (XANST), setaria viridis (SETVI), abutilon theophrasti (ABUTH), and chenopodium album (CHEAL) at rates of 60 or 120 grams per hectare, using a laboratory track sprayer. Each experiment was replicated four times and the percentage damage to the weeds was assessed visually at time periods of 7, 14 and 21 days after application. Each adjuvant was applied at a rate of 0.5% of the volume of the spray water. Four effects were evaluated: pesticide rate (2 levels), adjuvant type (two levels), weed species (four levels) and days after application (three levels). […] The effect of each adjuvant was pulled out from the model and the least significant differences evaluated using a Student's t method. […]
(§2) In this example the responses of the adjuvants 13, 17, 19, 21, 22 and 23 were measured at an application rate of 0.2% of the volume of the spray solution used. […] In each case the experiments were replicated four times and the percentage damage to the weeds was assessed visually at time periods of 14 and 21 days after application.
(§3) In this example the response of butylene oxide sample 27 of Table 1 was measured at an application rate of 0.2% of the volume of the spray solution used. […]

[3] = test system: chenopodium album (CHEAL), digitaria sanguinalis (DIGSA), setaria viridis (SETVI), abutilon theophrasti (ABUTH); experiment: Adjuvant with herbicide nicosulfuron, track sprayer, mean across four weed species
Description: as §1, with “levels). A standard simple linear model was constructed to judge the significance of these effects.” for “levels).”
In this example the butylene oxide adjuvant Sample 13 of Table 1 was compared to the commercial oil adjuvant blend Atplus™411F. […] Each experiment was replicated four times and the percentage damage to the weeds was assessed visually at time periods of 14 and 21 days after application. […]
In this example the rate response of the butylene oxide adjuvant Sample 13 of Table 1 was measured and compared to the adjuvant TEHP. […]

[4] = test system: setaria viridis (SETVI); experiment: Adjuvant with herbicide pinoxaden on SETVI; settings: pinoxaden 7.5 or 15 g/ha; butylene oxide adjuvants 0.2%, TEHP 0.5% v/v; 14 and 21 days
Description: as §1, §2, §3

[5] = test system: lolium perenne (LOLPE), alopecurius myosuirides (ALOMY), avena fatua (AVEFA); experiment: Adjuvant with herbicide pinoxaden, mean across three weed species (Example 22); settings: pinoxaden 7.5, 11.25 or 15 g/ha; Sample 13 0.2%, TEHP 0.5%; 14 and 21 days
Description: In this example Sample 13 from Table 1 was compared to the oil adjuvant blend Turbocharge™. The herbicide fomesafen was applied to the weed species xanthium strumarium (XANST), setaria viridis (SETVI), abutilon theophrasti (ABUTH), and chenopodium album (CHEAL) at rates of 60 or 120 grams per hectare, using a laboratory track sprayer. Each experiment was replicated four times and the percentage damage to the weeds was assessed visually at time periods of 7, 14 and 21 days after application. Each adjuvant was applied at a rate of 0.5% of the volume of the spray water. Four effects were evaluated: pesticide rate (2 levels), adjuvant type (two levels), weed species (four levels) and days after application (three levels). A standard simple linear model was constructed to judge the significance of these effects. […] A model was fitted using multiple linear regression using the statistics package JMP (SAS group). The effect of each adjuvant was pulled out from the model and the least significant differences evaluated using a Student's t method. […]
as §2, with “response” for “responses”, “butylene oxide adjuvant 13 of Table 1 was” for “adjuvants 13, 17, 19, 21, 22 and 23 were”

[6] = pinoxaden 7.5, 11.25 or 15 g/ha, Sample 13 0.2%, TEHP 0.5%
[7] = pinoxaden 7.5 or 15 g/ha, butylene oxide adjuvants 0.2%, TEHP 0.5% v/v

Compound: CCCCC(CC)COP(=O)(OCC(CC)CCCC)OCC(CC)CCCC (centres unmarked) [TEHP, tris 2-ethylhexyl phosphate]
- mean efficacy (percentage damage to the weeds), LOLPE [1, 6]: 58.06; A %
- mean efficacy (percentage damage to the weeds), LOLPE [1, 7]: 82.5; A %
- mean efficacy (percentage damage to the weeds), AVEFA [2, 6]: 78.33; A %
- mean efficacy (percentage damage to the weeds), AVEFA [2, 7]: 73.75; AB %
- mean efficacy (percentage damage to the weeds), All weeds ([3]; nicosulfuron 30 or 60 g/ha, adjuvants 0.2% of spray water, 14 and 21 days after application): 58.12; B %
- Mean % kill ([3]; nicosulfuron 30 to 60 g/ha, adjuvant rate 0.2% w/v, across four weed species, 14 and 21 days): 58.12%
- mean efficacy (percentage damage to the weeds), SETVI [4]: 77.5; ABC %
- mean efficacy (percentage damage to the weeds), All weeds [5]: 59.91; A %
